In ChEMBL document CHEMBL1201862, “PubChem BioAssay data set” (2004):
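Dose response: 5 concentrations. Exposure: 48 h. Format: 96-well plates. Endpoint: linear interpolation; highest concentration if not reached. GI50: concentration for 50% inhibition of growth.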 Activity calls are given as the source filed them. Cut-off read from the data, not from the text of the source: active = GI50 up to about 1.1 µM and inactive = higher.

Tests used:
Assay in all cases: inhibition of tumour cell growth, NCI panel, 48 h
NCI/ADR-RES = system: NCI/ADR-RES
PC-3 = system: PC-3
SNB-19 = system: SNB-19
RPMI-8226 = system: RPMI-8226
SF-295 = system: SF-295
Hs-578T = system: Hs-578T
BT-549 = system: BT-549
A549 = system: A549
SK-MEL-28 = system: SK-MEL-28
CCRF-CEM = system: CCRF-CEM
NCI-H460 = system: NCI-H460
HCC 2998 = system: HCC 2998
HL-60 = system: HL-60
CAKI-1 = system: CAKI-1
OVCAR-4 = system: OVCAR-4
SK-MEL-5 = system: SK-MEL-5
COLO 205 = system: COLO 205
UACC-257 = system: UACC-257
HCT-15 = system: HCT-15
NCI-H23 = system: NCI-H23

| SMILES | GI50 (NCI/ADR-RES) | GI50 (PC-3) | GI50 (SNB-19) | GI50 (RPMI-8226) | GI50 (SF-295) | GI50 (Hs-578T) | GI50 (BT-549) | GI50 (A549) | GI50 (SK-MEL-28) | GI50 (CCRF-CEM) | GI50 (NCI-H460) | GI50 (HCC 2998) | GI50 (HL-60) | GI50 (CAKI-1) | GI50 (OVCAR-4) | GI50 (SK-MEL-5) | GI50 (COLO 205) | GI50 (UACC-257) | GI50 (HCT-15) | GI50 (NCI-H23) |
| --- | --- | --- | --- | --- | --- | --- | --- | --- | --- | --- | --- | --- | --- | --- | --- | --- | --- | --- | --- | --- |
| Cc1ccccc1NC(=S)N/N=C(/c1ccccc1)c1ccccn1 | < 0.0187 µM (active) | < 0.01 µM (active) | 1.62 µM (inactive) | < 0.01 µM (active) | 0.0883 µM (active) | 13.2 µM (inactive) | 2.58 µM (inactive) | 0.0428 µM (active) | 2.3 µM (inactive) | < 0.01 µM (active) | 0.0702 µM (active) | 3.22 µM (inactive) | < 0.0736 µM (active) | 0.0743 µM (active) | 0.0826 µM (active) | 0.0664 µM (active) | < 0.01 µM (active) | < 0.01 µM (active) | < 0.01 µM | < 0.01 µM (active) |
| O=[N+]([O-])/C(Cl)=C/C(=C1/Nc2ccccc2O1)[N+](=O)[O-] | 24.3 µM (inactive) | 14.1 µM (inactive) | 17.4 µM (inactive) | 28.5 µM (inactive) | 26.7 µM (inactive) | 27.2 µM (inactive) | 16.3 µM (inactive) | 34.8 µM (inactive) | 19.5 µM (inactive) | 13.3 µM (inactive) | 31.5 µM (inactive) | 14.6 µM (inactive) | 11.6 µM (inactive) | 21.4 µM (inactive) | 29 µM (inactive) | 22.2 µM (inactive) | 21.2 µM (inactive) | 5.79 µM (inactive) | 16.6 µM | 17.8 µM (inactive) |
| Nc1ncc(N)c(NCC2(CO)CC(CCc3ccccc3)C2)n1 (stereo not given) | 12.4 µM (inactive) | 5.89 µM (inactive) | 11.1 µM (inactive) | 0.482 µM (active) | 11.1 µM (inactive) | 9.55 µM (inactive) | 9.75 µM (inactive) | 9.73 µM (inactive) | 14.4 µM (inactive) | 0.413 µM (active) | 13.1 µM (inactive) | 11.3 µM (inactive) | 0.12 µM (active) | 7.73 µM (inactive) | 4.02 µM (inactive) | 3.13 µM (inactive) | 3.71 µM (inactive) | 8.85 µM (inactive) | 13.9 µM | 5.13 µM (inactive) |
| CC1=CCCC(C)(O)C2CC(CCC3(C)OC3CC1)C(C)C(=O)O2 (stereo not given) | > 100 µM (inactive) | > 100 µM (inactive) | > 100 µM (inactive) | > 100 µM (inactive) | > 100 µM (inactive) | > 100 µM (inactive) | > 100 µM (inactive) | > 100 µM (inactive) | > 100 µM (inactive) | > 100 µM (inactive) | > 100 µM (inactive) | > 100 µM (inactive) | > 100 µM (inactive) | > 100 µM (inactive) | > 100 µM (inactive) | > 100 µM (inactive) | > 100 µM (inactive) | > 100 µM (inactive) | > 100 µM | > 100 µM (inactive) |
| CN(Cc1cnc2nc(N)nc(N)c2n1)c1ccc(C(=O)NCCCC(=O)O)cc1 | > 31.4 µM (inactive) | 0.773 µM (active) | > 63.1 µM (inactive) | > 40 µM (inactive) | 12.3 µM (inactive) | > 92.3 µM (inactive) | > 65 µM (inactive) | 5.83 µM (inactive) | > 100 µM (inactive) | 17.3 µM (inactive) | 7.24 µM (inactive) | > 100 µM (inactive) | > 100 µM (inactive) | > 27.5 µM (inactive) | > 100 µM (inactive) | 49.2 µM (inactive) | > 100 µM (inactive) | 98.9 µM (inactive) | 6.01 µM | 37.3 µM (inactive) |
| O=C(CCc1ccccc1CO)NCCc1ccccc1 | > 100 µM (inactive) | > 100 µM (inactive) | 15.9 µM (inactive) | > 100 µM (inactive) | > 100 µM (inactive) | 20 µM (inactive) | > 100 µM (inactive) | > 100 µM (inactive) | > 100 µM (inactive) | > 100 µM (inactive) | > 100 µM (inactive) | > 100 µM (inactive) | 72.4 µM (inactive) | > 100 µM (inactive) | 59.6 µM (inactive) | > 100 µM (inactive) | > 100 µM (inactive) | > 100 µM (inactive) | > 100 µM | > 100 µM (inactive) |
